Like-named read-outs stand apart in the source and are kept apart here.
Assays:
OX1 = molecular target: T1, OX1 (Homo sapiens, UniProt O43613); test: Orexin receptor cell-based functional assay, [Ca2+]i by FLIPR, CHO-OX1 cells; conditions: CHO-OX1 cells, EC90 of OXA
T1 construct: expressed in transfected cells; host or cells: CHO (CHO-OX1, kept under selection antibiotic)
T1 sequence (O43613 1-425): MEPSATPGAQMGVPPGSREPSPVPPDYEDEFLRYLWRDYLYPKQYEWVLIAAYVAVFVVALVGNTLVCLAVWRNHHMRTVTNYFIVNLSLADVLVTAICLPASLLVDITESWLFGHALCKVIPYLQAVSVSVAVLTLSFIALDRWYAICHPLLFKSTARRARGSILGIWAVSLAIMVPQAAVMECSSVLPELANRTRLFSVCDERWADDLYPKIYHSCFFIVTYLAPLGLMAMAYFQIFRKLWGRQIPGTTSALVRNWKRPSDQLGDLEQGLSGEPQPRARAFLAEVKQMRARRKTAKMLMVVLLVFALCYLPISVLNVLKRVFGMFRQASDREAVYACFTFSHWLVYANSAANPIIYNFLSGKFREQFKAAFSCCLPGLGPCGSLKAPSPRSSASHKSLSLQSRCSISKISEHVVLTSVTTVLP
How it was run: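 CHO cells expressing human OX1 or OX2 loaded with calcium dye plus 2.5 mM probenecid at 37° C (calcium4, 30 min, or calcium6, 2 h), then exposed to compounds (0.1 nM-10 μM) for 30 min. Intracellular Ca2+ measured on FLIPR; antagonist format.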

OX2 = molecular target: T2, OX2 (Homo sapiens, UniProt O43614); test: Orexin receptor cell-based functional assay, [Ca2+]i by FLIPR, CHO-OX2 cells
T2 construct: expressed in transfected cells; host or cells: CHO (CHO-OX2, kept under selection antibiotic)
T2 sequence (O43614 1-444): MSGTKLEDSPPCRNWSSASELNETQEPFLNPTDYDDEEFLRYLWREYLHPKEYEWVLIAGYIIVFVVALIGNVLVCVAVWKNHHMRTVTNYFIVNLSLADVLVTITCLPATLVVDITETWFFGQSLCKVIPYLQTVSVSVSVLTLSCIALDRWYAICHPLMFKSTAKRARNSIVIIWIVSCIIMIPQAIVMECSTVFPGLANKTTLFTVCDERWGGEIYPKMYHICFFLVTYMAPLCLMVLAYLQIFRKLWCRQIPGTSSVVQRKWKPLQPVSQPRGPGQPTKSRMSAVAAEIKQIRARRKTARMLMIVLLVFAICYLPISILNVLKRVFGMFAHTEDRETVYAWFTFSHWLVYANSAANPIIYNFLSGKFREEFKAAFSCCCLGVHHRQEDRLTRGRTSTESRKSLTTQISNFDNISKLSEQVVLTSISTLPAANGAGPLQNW
Description: Measurement of [Ca^2+]i using a FLIPR: CHO—OX1 or CHO—OX2 cells are seeded into black-walled clear-base 384-well plates (Costar) at a density of 20,000 cells per well in F12-K medium supplemented with 10% FBS and selection antibiotic (500 ug/ml G418 or 15 ug/ml Blasticidin) and cultured overnight. The cells are incubated with equal volume of calcium4 loading buffer (Molecular Devices, Inc.) containing 2.5 mM probenecid at 37° C. for 30 min, followed by putative OX1 or OX2 receptor antagonists (dose-range 0.1 nM-10 μM) for another 30 min.
The cells are incubated with equal volume of calcium6 loading buffer (Molecular Devices, Inc.) containing 2.5 mM probenecid at 37° C. for 2 h, followed by test compounds (dose-range 0.1 nM-10 μM) for another 30 min.

[1] = [Ca2+]i by FLIPR, antagonist dose-range 0.1 nM-10 μM, read-out: OX1
[2] = [Ca2+]i by FLIPR, antagonist dose-range 0.1 nM-10 μM, EC90 of OXA, read-out: OX2

| IC50 (OX1; Table 2, read-out: IC50 Bioactivity OX1) [nM] | IC50 (OX2; Table 2, EC90 of OXA, read-out: IC50 Bioactivity OX2) [nM] | IC50 (OX1; [1]) [nM] | IC50 (OX2; [2]) [nM] | Compound |
| --- | --- | --- | --- | --- |
| 3 | 500 | – | – | Cc1ccc(-n2cccn2)c(C(=O)N2CCC[C@@H](C)[C@H]2CNc2ccc(C(F)(F)F)cn2)c1 (racemic) [Example 120, rac-cis-(3-Methyl-2-(((5-(trifluoromethyl)pyridin-2-yl)amino)methyl)piperidin-1-yl)(5-methyl-2-(1H-pyrazol-1-yl)phenyl)methanone] |
| – | – | 250 | 3360 | Cc1ccc(-n2nccn2)c(C(=O)N2CC3CCCC3C2CNc2nc3cc(Cl)ccc3o2)c1 (stereo not drawn) [Example A68, (1-(((5-Chlorobenzo[d]oxazol-2-yl)amino)methyl)hexahydrocyclopenta[c]pyrrol-2(1H)-yl)(5-methyl-2-(2H-1,2,3-triazol-2-yl)phenyl)methanone] |
| – | – | 2500 | 7800 | Cc1ccc(-c2cnn(C)c2)c(C(=O)N2CC3CCCC3C2CNc2nc3cc(Cl)ccc3o2)c1 (stereo not drawn) [Example A70, (1-(((5-Chlorobenzo[d]oxazol-2-yl)amino)methyl)hexahydrocyclopenta[c]pyrrol-2(1H)-yl)(5-methyl-2-(1-methyl-1H-pyrazol-4-yl)phenyl)methanone] |
| – | – | 11 | > 5000 | C[C@@H]1CCCN(C(=O)c2ccc(F)cc2-c2ncccn2)[C@@H]1CNc1ccc(C(F)(F)F)cn1 [Example A234, (4-Fluoro-2-(pyrimidin-2-yl)phenyl)((2S,3R)-3-methyl-2-(((5-(trifluoromethyl)pyridin-2-yl)amino)methyl)piperidin-1-yl)methanone] |
| – | – | 23 | > 5000 | Cc1cccc(-n2nccn2)c1C(=O)N1CCC[C@@H](C)[C@H]1CNc1ncc(C(F)(F)F)cn1 [Example A264, ((2S,3R)-3-Methyl-2-(((5-(trifluoromethyl)pyrimidin-2-yl)amino)methyl)piperidin-1-yl)(2-methyl-6-(2H-1,2,3-triazol-2-yl)phenyl)methanone] |
| – | – | 9 | > 5000 | Cc1ccc(C(=O)N2CCC[C@@H](C)[C@H]2CNc2ccc(C(F)(F)F)cn2)c(-c2ncccn2)c1 [Example A305, ((2S,3R)-3-Methyl-2-(((5-(trifluoromethyl)pyridin-2-yl)amino)methyl)piperidin-1-yl)(4-methyl-2-(pyrimidin-2-yl)phenyl)methanone] |
| – | – | 4 | 1500 | Cc1ccc(F)c(C(=O)N2CCC[C@@H](C)[C@H]2CNc2ccc(C(F)(F)F)cn2)c1-n1nccn1 [Example A352, (6-Fluoro-3-methyl-2-(2H-1,2,3-triazol-2-yl)phenyl)((2S,3R)-3-methyl-2-(((5-(trifluoromethyl)pyridin-2-yl)amino)methyl)piperidin-1-yl)methanone] |
| – | – | 5 | > 5000 | Cc1c(F)ccc(-c2ncccn2)c1C(=O)N1CCC[C@@H](C)[C@H]1CNc1ccc(C(F)(F)F)cn1 [Example A386, (3-fluoro-2-methyl-6-(pyrimidin-2-yl)phenyl)((2S,3R)-3-methyl-2-(((5-(trifluoromethyl)pyridin-2-yl)amino)methyl)piperidin-1-yl)methanone] |
| – | – | 4 | > 5000 | C[C@@H]1CCCN(C(=O)c2c(-c3ncccn3)ccc(F)c2F)[C@@H]1CNc1ccc(C(F)(F)F)cn1 [Example A388, (2,3-Difluoro-6-(pyrimidin-2-yl)phenyl)((2S,3R)-3-methyl-2-(((5-(trifluoromethyl)pyridin-2-yl)amino)methyl)piperidin-1-yl)methanone] |

More lines, now with the values behind:

| Compound | IC50 (OX1; Table 2, read-out: IC50 Bioactivity OX1) [nM] | IC50 (OX2; Table 2, EC90 of OXA, read-out: IC50 Bioactivity OX2) [nM] | IC50 (OX1; [1]) [nM] | IC50 (OX2; [2]) [nM] |
| --- | --- | --- | --- | --- |
| Cc1ccc(-n2cnc(C(F)(F)F)n2)c(C(=O)N2CC3CCCC3C2CNc2nc3cc(Cl)ccc3o2)c1 (stereo not drawn) [Example A72, (1-(((5-Chlorobenzo[d]oxazol-2-yl)amino)methyl)hexahydrocyclopenta[c]pyrrol-2(1H)-yl)(5-methyl-2-(3-(trifluoromethyl)-1H-1,2,4-triazol-1-yl)phenyl)methanone] | – | – | 2400 | 3900 |
| C[C@@H]1CCCN(C(=O)c2ccc(F)cc2-c2ncccn2)[C@@H]1CNc1ncc(C(F)(F)F)cn1 [Example A235, (4-Fluoro-2-(pyrimidin-2-yl)phenyl)((2S,3R)-3-methyl-2-(((5-(trifluoromethyl)pyrimidin-2-yl)amino)methyl)piperidin-1-yl)methanone] | – | – | 12 | 2400 |
| Cc1cccc(-n2nccn2)c1C(=O)N1CCC[C@@H](C)[C@H]1CNc1ccc(C(F)(F)F)cn1 [Example A265, ((2S,3R)-3-Methyl-2-(((5-(trifluoromethyl)pyridin-2-yl)amino)methyl)piperidin-1-yl)(2-methyl-6-(2H-1,2,3-triazol-2-yl)phenyl)methanone] | – | – | 8 | > 5000 |
| Cc1ccc(-c2ncccn2)c(C(=O)N2CCC[C@@H](C)[C@H]2CNc2ccc(C(F)(F)F)cn2)c1F [Example A320, (2-Fluoro-3-methyl-6-(pyrimidin-2-yl)phenyl)((2S,3R)-3-methyl-2-(((5-(trifluoromethyl)pyridin-2-yl)amino)methyl)piperidin-1-yl)methanone] | – | – | 2 | 1400 |
| Cc1ccc(-c2ncccn2)c(C(=O)N2CCC[C@@H](C)[C@H]2CNc2ncc(C(F)(F)F)cn2)c1F [Example A321] | – | – | 8 | > 5000 |
| Cc1ccc(C(=O)N2CCC[C@@H](C)[C@H]2CNc2ncc(C(F)(F)F)cn2)c(-c2ncccn2)c1 [Example A340, ((2S,3R)-3-Methyl-2-(((5-(trifluoromethyl)pyrimidin-2-yl)amino)methyl)piperidin-1-yl)(4-methyl-2-(pyrimidin-2-yl)phenyl)methanone] | – | – | 2 | > 5000 |
| Cc1ccc(F)c(C(=O)N2CCC[C@@H](C)[C@H]2CNc2ncc(C(F)(F)F)cn2)c1-n1nccn1 [Example A353, (6-fluoro-3-methyl-2-(2H-1,2,3-triazol-2-yl)phenyl)((2S,3R)-3-methyl-2-(((5-(trifluoromethyl)pyrimidin-2-yl)amino)methyl)piperidin-1-yl)methanone] | – | – | 4 | > 5000 |
| Cc1cc(-n2nccn2)c(C(=O)N2CCC[C@@H](C)[C@H]2CNc2ccc(C(F)(F)F)cn2)cc1F [Example A360, (5-Fluoro-4-methyl-2-(2H-1,2,3-triazol-2-yl)phenyl)((2S,3R)-3-methyl-2-(((5-(trifluoromethyl)pyridin-2-yl)amino)methyl)piperidin-1-yl)methanone] | – | – | – | > 5000 |
| Cc1cc(-n2nccn2)c(C(=O)N2CCC[C@@H](C)[C@H]2CNc2ncc(C(F)(F)F)cn2)cc1F [Example A361, (5-fluoro-4-methyl-2-(2H-1,2,3-triazol-2-yl)phenyl)((2S,3R)-3-methyl-2-(((5-(trifluoromethyl)pyrimidin-2-yl)amino)methyl)piperidin-1-yl)methanone] | – | – | 4 | > 5000 |
| Cc1c(F)ccc(-n2nccn2)c1C(=O)N1CCC[C@@H](C)[C@H]1CNc1ncc(C(F)(F)F)cn1 [Example A385, (3-fluoro-2-methyl-6-(2H-1,2,3-triazol-2-yl)phenyl)((2S,3R)-3-methyl-2-(((5-(trifluoromethyl)pyrimidin-2-yl)amino)methyl)piperidin-1-yl)methanone] | – | – | 24 | > 5000 |
| Cc1c(F)ccc(-c2ncccn2)c1C(=O)N1CCC[C@@H](C)[C@H]1CNc1ncc(C(F)(F)F)cn1 [Example A387, (3-fluoro-2-methyl-6-(pyrimidin-2-yl)phenyl)((2S,3R)-3-methyl-2-(((5-(trifluoromethyl)pyrimidin-2-yl)amino)methyl)piperidin-1-yl)methanone] | – | – | 30 | > 5000 |

— patent US9440982B2 (Eolas Therapeutics, Inc., priority 2012, dated 2016)
